For the data set, the system named is SNORA23. The data set is described as follows: knock-down of target RNA after transdermal or subcutaneous administration to tumor-bearing mice (RT-PCR). Format: in vivo. The conditions noted are these: for expression level of the target RNA (SNORA23): 250 μg ASO in 50 μL, two days after, skin, subcutaneous tumor, liver, FIG. 34. The procedure: A formulation targeting SNORA23 was prepared. To mice, 3×10^6 ES2 ovarian carcinoma cells were subcutaneously transplanted, and the formation of subcutaneous tumor was checked 1 week after that. To the top (1 cm×1 cm) of a tumor or into the periphery of a tumor, 50 μL of hybrid particles containing 250 μg of ASO targeting SNORA23 was applied or subcutaneously injected. For the transdermal administration group, protective tape was wound once around the trunk including the administration site.
Two days after the administration, the skin, subcutaneous tumor, and liver were isolated, and total RNA was extracted. The level of targeted RNA (SNORA23) was quantified, and the presence or absence of reduction in the expression level was examined by an RT-PCR method.

Strand notation (5' to 3'): a small letter for the sugar, then the base; units joined by * are phosphorothioate-linked, units joined directly phosphodiester-linked; [ ] holds rarer units or linkages, { } end groups; capitals alone tell only the bases. l = locked nucleic acid (LNA); [5mC] = 5-methylcytosine; d = 2'-deoxy (DNA)

In the case of “5′-GAAacctatgmCAmCa-3′ (lG*lA*lA*dA*dC*dC*dT*dA*dT*dG*l[5mC]*lA*l[5mC]*dA) [ASO]”, the “knock-down of target RNA in the liver” value (irrespective of the route of administration, suggests migration of ASO into blood) is listed as “knock-down effect”. Further, the “expression level of the target RNA (SNORA23)” value is “Reduction of the expression level of the target RNA was induced” (subcutaneous administration) and “Reduction of the expression level of the target RNA was induced” (transdermal administration).

Values taken from patent US20260191969A1, “COMPOSITION CONTAINING ANIONIC LONG-CHAIN LIPID TO BE USED FOR ATTENUATING SKIN BARRIER FUNCTION, AND DISPERSION CONTAINING COMPLEX COMPRISING CATIONIC LONG-CHAIN LIPID, ANIONIC LONG-CHAIN LIPID AND DRUG DISPERSED THEREIN” (KYUSHU UNIVERSITY, NATIONAL UNIVERSITY CORPORATION, priority 2022, published 2026).
